Source: the NIST ThermoML archive (doi:10.1021/je060271a)
Numbers after ± are expanded uncertainties.

Conditions: 323.14 K, Liquid, Vibrating tube method

Structure (SMILES): CCCCCC(=O)OCC(COC(=O)CCCCC)(COC(=O)CCCCC)COC(=O)CCCCC [pentaerythritol tetrahexanoate]
- mass density (4906.2 kPa): 976 ± 1.2 kg/m3
- mass density (4926.8 kPa): 976.1 ± 1.2 kg/m3
- mass density (4951.5 kPa): 976.2 ± 1.2 kg/m3
- mass density (4972.1 kPa): 976.2 ± 1.2 kg/m3
- mass density (4997.4 kPa): 976.1 ± 1.2 kg/m3
- mass density (5018.6 kPa): 976.1 ± 1.2 kg/m3
- mass density (5041 kPa): 976.1 ± 1.2 kg/m3
- mass density (5066.8 kPa): 976.1 ± 1.2 kg/m3
- mass density (5088.6 kPa): 976.2 ± 1.2 kg/m3
- mass density (5114.4 kPa): 976.3 ± 1.2 kg/m3
- mass density (5140.5 kPa): 976.2 ± 1.2 kg/m3
- mass density (5162.3 kPa): 976.3 ± 1.2 kg/m3
- mass density (5184.8 kPa): 976.5 ± 1.2 kg/m3
- mass density (5212 kPa): 976.3 ± 1.2 kg/m3
- mass density (5233.9 kPa): 976.3 ± 1.2 kg/m3
- mass density (5261.4 kPa): 976.3 ± 1.2 kg/m3
- mass density (5289.1 kPa): 976.3 ± 1.2 kg/m3
- mass density (5313.2 kPa): 976.3 ± 1.2 kg/m3
- mass density (5337.7 kPa): 976.4 ± 1.2 kg/m3
- mass density (5363.2 kPa): 976.4 ± 1.2 kg/m3
- mass density (5392.1 kPa): 976.2 ± 1.2 kg/m3
- mass density (5421.2 kPa): 976.4 ± 1.2 kg/m3
- mass density (5445 kPa): 976.5 ± 1.2 kg/m3
- mass density (5469.8 kPa): 976.5 ± 1.2 kg/m3
- mass density (5499.7 kPa): 976.6 ± 1.2 kg/m3
- mass density (5530.1 kPa): 976.4 ± 1.2 kg/m3
- mass density (5555.5 kPa): 976.6 ± 1.2 kg/m3
- mass density (5581.3 kPa): 976.6 ± 1.2 kg/m3
- mass density (5611.7 kPa): 976.5 ± 1.2 kg/m3
- mass density (5635.4 kPa): 976.5 ± 1.2 kg/m3
- mass density (5659 kPa): 976.7 ± 1.2 kg/m3
- mass density (5678.8 kPa): 976.7 ± 1.2 kg/m3
- mass density (5695.8 kPa): 976.6 ± 1.2 kg/m3
- mass density (5715.8 kPa): 976.7 ± 1.2 kg/m3
- mass density (5733 kPa): 976.7 ± 1.2 kg/m3
- mass density (5749.7 kPa): 976.7 ± 1.2 kg/m3
- mass density (5769.6 kPa): 976.7 ± 1.2 kg/m3
- mass density (5786.4 kPa): 976.7 ± 1.2 kg/m3
- mass density (5806.6 kPa): 976.8 ± 1.2 kg/m3
- mass density (5823.9 kPa): 976.7 ± 1.2 kg/m3
- mass density (5844.1 kPa): 976.7 ± 1.2 kg/m3
- mass density (5861.2 kPa): 976.8 ± 1.2 kg/m3
- mass density (5882.2 kPa): 976.8 ± 1.2 kg/m3
- mass density (5899.3 kPa): 976.7 ± 1.2 kg/m3
- mass density (5920.4 kPa): 976.7 ± 1.2 kg/m3
- mass density (5941.5 kPa): 976.8 ± 1.2 kg/m3
- mass density (5959.1 kPa): 976.8 ± 1.2 kg/m3
- mass density (5976.7 kPa): 976.8 ± 1.2 kg/m3
- mass density (5997.6 kPa): 976.8 ± 1.2 kg/m3
- mass density (6015.1 kPa): 976.8 ± 1.2 kg/m3
- mass density (6036.5 kPa): 977 ± 1.2 kg/m3
- mass density (6054.3 kPa): 977 ± 1.2 kg/m3
- mass density (6075.8 kPa): 976.9 ± 1.2 kg/m3
- mass density (6094.3 kPa): 976.9 ± 1.2 kg/m3
- mass density (6115.5 kPa): 976.8 ± 1.2 kg/m3
- mass density (6134 kPa): 976.9 ± 1.2 kg/m3
- mass density (6155.6 kPa): 976.8 ± 1.2 kg/m3
- mass density (6178.1 kPa): 977.1 ± 1.2 kg/m3
- mass density (6196.6 kPa): 977 ± 1.2 kg/m3
- mass density (6361.8 kPa): 977.1 ± 1.2 kg/m3
- mass density (6380.8 kPa): 977.1 ± 1.2 kg/m3
- mass density (6403.6 kPa): 977.1 ± 1.2 kg/m3
- mass density (6426.8 kPa): 977.2 ± 1.2 kg/m3
- mass density (6446.5 kPa): 977.1 ± 1.2 kg/m3
- mass density (6465.6 kPa): 977.2 ± 1.2 kg/m3
- mass density (6489.3 kPa): 977.1 ± 1.2 kg/m3
- mass density (6576.9 kPa): 977.3 ± 1.2 kg/m3
- mass density (6597.3 kPa): 977.2 ± 1.2 kg/m3
- mass density (6621.1 kPa): 977.3 ± 1.2 kg/m3
- mass density (6641.5 kPa): 977.4 ± 1.2 kg/m3
- mass density (6666.6 kPa): 977.2 ± 1.2 kg/m3
- mass density (6690.9 kPa): 977.4 ± 1.2 kg/m3
- mass density (6711.7 kPa): 977.4 ± 1.2 kg/m3
- mass density (6732.6 kPa): 977.4 ± 1.2 kg/m3
- mass density (6757.6 kPa): 977.4 ± 1.2 kg/m3
- mass density (6778.7 kPa): 977.3 ± 1.2 kg/m3
- mass density (6803.9 kPa): 977.3 ± 1.2 kg/m3
- mass density (6825.5 kPa): 977.5 ± 1.2 kg/m3
- mass density (6851.4 kPa): 977.5 ± 1.2 kg/m3
- mass density (6873.7 kPa): 977.5 ± 1.2 kg/m3
- mass density (6899.4 kPa): 977.5 ± 1.2 kg/m3
- mass density (6921.3 kPa): 977.5 ± 1.2 kg/m3
- mass density (6947.4 kPa): 977.5 ± 1.2 kg/m3
- mass density (6973.7 kPa): 977.5 ± 1.2 kg/m3
- mass density (6995.9 kPa): 977.5 ± 1.2 kg/m3
- mass density (7019.4 kPa): 977.6 ± 1.2 kg/m3
- mass density (7043.5 kPa): 977.5 ± 1.2 kg/m3
- mass density (7070.3 kPa): 977.6 ± 1.2 kg/m3
- mass density (7093.1 kPa): 977.7 ± 1.2 kg/m3
- mass density (7120.7 kPa): 977.6 ± 1.2 kg/m3
- mass density (7143.5 kPa): 977.6 ± 1.2 kg/m3
- mass density (7170.6 kPa): 977.7 ± 1.2 kg/m3
- mass density (7194.3 kPa): 977.8 ± 1.2 kg/m3
- mass density (7222.1 kPa): 977.7 ± 1.2 kg/m3
- mass density (7250.4 kPa): 977.7 ± 1.2 kg/m3
- mass density (7273.9 kPa): 977.8 ± 1.2 kg/m3
- mass density (7297.5 kPa): 977.6 ± 1.2 kg/m3
- mass density (7326.7 kPa): 977.8 ± 1.2 kg/m3
- mass density (7351.7 kPa): 977.8 ± 1.2 kg/m3
- mass density (7381.1 kPa): 977.8 ± 1.2 kg/m3
- mass density (7460.9 kPa): 977.8 ± 1.2 kg/m3
- mass density (7573.4 kPa): 977.9 ± 1.2 kg/m3
- mass density (7631.6 kPa): 977.9 ± 1.2 kg/m3
- mass density (7784.6 kPa): 978.1 ± 1.2 kg/m3
- mass density (7812.4 kPa): 978 ± 1.2 kg/m3
- mass density (7839.9 kPa): 978.1 ± 1.2 kg/m3
- mass density (7863.3 kPa): 978.1 ± 1.2 kg/m3
- mass density (8237.7 kPa): 978.4 ± 1.2 kg/m3
- mass density (8267.6 kPa): 978.3 ± 1.2 kg/m3
- mass density (8292.8 kPa): 978.4 ± 1.2 kg/m3
- mass density (8323.1 kPa): 978.5 ± 1.2 kg/m3
- mass density (8348.5 kPa): 978.4 ± 1.2 kg/m3
- mass density (8379 kPa): 978.5 ± 1.2 kg/m3
- mass density (8410 kPa): 978.4 ± 1.2 kg/m3
- mass density (8436.3 kPa): 978.5 ± 1.2 kg/m3
- mass density (8466.9 kPa): 978.5 ± 1.2 kg/m3
- mass density (8498.7 kPa): 978.5 ± 1.2 kg/m3
- mass density (8525.2 kPa): 978.6 ± 1.2 kg/m3
- mass density (8557.3 kPa): 978.5 ± 1.2 kg/m3
- mass density (8584.2 kPa): 978.6 ± 1.2 kg/m3
- mass density (8617 kPa): 978.7 ± 1.2 kg/m3
- mass density (8645.1 kPa): 978.7 ± 1.2 kg/m3
- mass density (8678.7 kPa): 978.7 ± 1.2 kg/m3
- mass density (8712.2 kPa): 978.7 ± 1.2 kg/m3
- mass density (8740.6 kPa): 978.8 ± 1.2 kg/m3
- mass density (8775.3 kPa): 978.7 ± 1.2 kg/m3
- mass density (8805.1 kPa): 978.8 ± 1.2 kg/m3
- mass density (8840.3 kPa): 978.8 ± 1.2 kg/m3
- mass density (8877 kPa): 978.8 ± 1.2 kg/m3
- mass density (8907.8 kPa): 978.7 ± 1.2 kg/m3
- mass density (8944 kPa): 978.8 ± 1.2 kg/m3
- mass density (8971.8 kPa): 978.9 ± 1.2 kg/m3
- mass density (8997.6 kPa): 978.9 ± 1.2 kg/m3
- mass density (9020.2 kPa): 978.9 ± 1.2 kg/m3
- mass density (9142.1 kPa): 979 ± 1.2 kg/m3
- mass density (9164.7 kPa): 979.1 ± 1.2 kg/m3
- mass density (9183.3 kPa): 978.9 ± 1.2 kg/m3
- mass density (9204.3 kPa): 978.9 ± 1.2 kg/m3
- mass density (9226.4 kPa): 978.9 ± 1.2 kg/m3
- mass density (9720.5 kPa): 979.3 ± 1.2 kg/m3
- mass density (9812.4 kPa): 979.5 ± 1.2 kg/m3
- mass density (9820.8 kPa): 979.4 ± 1.2 kg/m3
- mass density (9834.6 kPa): 979.4 ± 1.2 kg/m3
- mass density (9846 kPa): 979.4 ± 1.2 kg/m3
- mass density (9859.9 kPa): 979.4 ± 1.2 kg/m3
